Assay results reported in PubChem BioAssay AID1745844 (Carcinogenic Potency Database (CPDB), 2022).
Active and inactive are the calls of the source. No rule for the calls is given here.

Tested on: rodent lifetime carcinogenesis bioassay, tumor incidence TD50
Assay: chronic cancer bioassays in animals – CPDB, compiled studies (AID 1745844)

O=Cc1ccco1
carcinogen call (hamster, strain Syrian Golden, females, inhaled, site: liver, lesion: one or several types, types not named, dosed 52 weeks, study length 81 weeks): negative (inactive)
carcinogen call (hamster, strain Syrian Golden, females, inhaled, site: lung, lesion: one or several types, types not named, dosed 52 weeks, study length 81 weeks): negative (inactive)
carcinogen call (hamster, strain Syrian Golden, males, inhaled, site: liver, lesion: one or several types, types not named, dosed 52 weeks, study length 81 weeks): negative (inactive)
carcinogen call (hamster, strain Syrian Golden, males, inhaled, site: lung, lesion: one or several types, types not named, dosed 52 weeks, study length 81 weeks): negative (inactive)
TD50 (mouse, strain B6C3F1, females, by gavage, site: forestomach, lesion: squamous-cell papilloma, dosed 103 weeks, study length 104 weeks): 920 mg/kg/day
TD50 (mouse, strain B6C3F1, females, by gavage, site: liver, lesion: hepatocellular adenoma + hepatocellular carcinoma + neoplastic nodule, dosed 103 weeks, study length 104 weeks): 377 mg/kg/day
TD50 (mouse, strain B6C3F1, females, by gavage, site: liver, lesion: hepatocellular adenoma + hepatocellular carcinoma, dosed 103 weeks, study length 104 weeks): 377 mg/kg/day
TD50 (mouse, strain B6C3F1, females, by gavage, site: liver, lesion: hepatocellular adenoma, dosed 103 weeks, study length 104 weeks): 364 mg/kg/day
TD50 (mouse, strain B6C3F1, males, by gavage, site: any site (literature study), lesion: several types, types named in the paper, dosed 103 weeks, study length 104 weeks): 165 mg/kg/day
TD50 (mouse, strain B6C3F1, males, by gavage, site: kidney cortex, lesion: adenoma + carcinoma, dosed 103 weeks, study length 104 weeks): 1400 mg/kg/day
TD50 (mouse, strain B6C3F1, males, by gavage, site: liver, lesion: hepatocellular adenoma + hepatocellular carcinoma + neoplastic nodule, dosed 103 weeks, study length 104 weeks): 135 mg/kg/day
TD50 (mouse, strain B6C3F1, males, by gavage, site: liver, lesion: hepatocellular adenoma + hepatocellular carcinoma, dosed 103 weeks, study length 104 weeks): 135 mg/kg/day
TD50 (mouse, strain B6C3F1, males, by gavage, site: liver, lesion: hepatocellular adenoma, dosed 103 weeks, study length 104 weeks): 207 mg/kg/day
TD50 (mouse, strain B6C3F1, males, by gavage, site: liver, lesion: hepatocellular carcinoma, dosed 103 weeks, study length 104 weeks): 219 mg/kg/day
TD50 (mouse, strain B6C3F1, males, by gavage, site: lung, lesion: alveolar/bronchiolar adenoma + alveolar/bronchiolar carcinoma, dosed 103 weeks, study length 104 weeks): 662 mg/kg/day
TD50 (mouse, strain B6C3F1, males, by gavage, site: subcutaneous tissue, lesion: fibrosarcoma + fibroma + sarcoma, dosed 103 weeks, study length 104 weeks): 169 mg/kg/day
TD50 (mouse, strain B6C3F1, males, by gavage, site: subcutaneous tissue, lesion: fibrosarcoma + fibroma, dosed 103 weeks, study length 104 weeks): 190 mg/kg/day
TD50 (mouse, strain B6C3F1, males, by gavage, site: subcutaneous tissue, lesion: fibrosarcoma + sarcoma, dosed 103 weeks, study length 104 weeks): 187 mg/kg/day
TD50 (mouse, strain B6C3F1, males, by gavage, site: subcutaneous tissue, lesion: fibrosarcoma, dosed 103 weeks, study length 104 weeks): 212 mg/kg/day
TD50 (rat, strain Fischer 344, females, by gavage, site: any site (literature study), lesion: several types, types named in the paper, dosed 103 weeks, study length 105 weeks): 194 mg/kg/day (inactive)
TD50 (rat, strain Fischer 344, males, by gavage, site: any site (literature study), lesion: several types, types named in the paper, dosed 103 weeks, study length 105 weeks): 150 mg/kg/day
TD50 (rat, strain Fischer 344, males, by gavage, site: liver, lesion: cholangiocarcinoma, dosed 103 weeks, study length 105 weeks): 683 mg/kg/day

CCN(CC)C(=S)SSC(=S)N(CC)CC
TD50 (mouse, strain B6AKF1, females, oral dosing, site: any site (literature study), lesion: several types, types named in the paper, dosed 76 weeks, study length 76 weeks): 1940 mg/kg/day
TD50 (mouse, strain B6AKF1, females, oral dosing, site: lung, lesion: adenoma, dosed 76 weeks, study length 76 weeks): 4140 mg/kg/day
TD50 (mouse, strain B6AKF1, males, oral dosing, site: any site (literature study), lesion: several types, types named in the paper, dosed 76 weeks, study length 76 weeks): 10.1 mg/kg/day
TD50 (mouse, strain B6AKF1, males, oral dosing, site: liver, lesion: hepatoma, dosed 76 weeks, study length 76 weeks): 197 mg/kg/day
TD50 (mouse, strain B6AKF1, males, oral dosing, site: subcutaneous tissue, lesion: fibrosarcoma, dosed 76 weeks, study length 76 weeks): 15.4 mg/kg/day
carcinogen call (mouse, strain B6C3F1, females, in feed, site: any site (literature study), lesion: several types, types named in the paper, dosed 108 weeks, study length 108 weeks): negative (inactive)
TD50 (mouse, strain B6C3F1, females, in feed, site: liver, lesion: hepatocellular adenoma + hepatocellular carcinoma + neoplastic nodule, dosed 108 weeks, study length 108 weeks): 120 mg/kg/day
TD50 (mouse, strain B6C3F1, females, in feed, site: lung, lesion: alveolar/bronchiolar adenoma + alveolar/bronchiolar carcinoma, dosed 108 weeks, study length 108 weeks): 323 mg/kg/day
TD50 (mouse, strain B6C3F1, females, oral dosing, site: any site (literature study), lesion: several types, types named in the paper, dosed 76 weeks, study length 76 weeks): 64.5 mg/kg/day
TD50 (mouse, strain B6C3F1, females, oral dosing, site: liver, lesion: hepatoma, dosed 76 weeks, study length 76 weeks): 283 mg/kg/day
TD50 (mouse, strain B6C3F1, females, oral dosing, site: lung, lesion: adenoma, dosed 76 weeks, study length 76 weeks): 283 mg/kg/day
TD50 (mouse, strain B6C3F1, females, oral dosing, site: lung, lesion: carcinoma, dosed 76 weeks, study length 76 weeks): 283 mg/kg/day
TD50 (mouse, strain B6C3F1, females, oral dosing, site: lung, lesion: several types, types named in the paper, dosed 76 weeks, study length 76 weeks): 138 mg/kg/day
carcinogen call (mouse, strain B6C3F1, males, in feed, site: any site (literature study), lesion: several types, types named in the paper, dosed 108 weeks, study length 108 weeks): negative (inactive)
TD50 (mouse, strain B6C3F1, males, oral dosing, site: any site (literature study), lesion: several types, types named in the paper, dosed 76 weeks, study length 76 weeks): 17 mg/kg/day
TD50 (mouse, strain B6C3F1, males, oral dosing, site: liver, lesion: hepatoma, dosed 76 weeks, study length 76 weeks): 23.7 mg/kg/day
TD50 (mouse, strain B6C3F1, males, oral dosing, site: lung, lesion: adenoma, dosed 76 weeks, study length 76 weeks): 43.2 mg/kg/day
carcinogen call (rat, strain Charles River CD (Sprague-Dawley), females, in feed, site: any site (literature study), lesion: one or several types, types not named, dosed 104 weeks, study length 104 weeks): negative (inactive)
TD50 (rat, strain Charles River CD (Sprague-Dawley), females, in feed, site: any site (literature study), lesion: several types, types named in the paper, dosed 78 weeks, study length 78 weeks): 193 mg/kg/day
TD50 (rat, strain Charles River CD (Sprague-Dawley), females, in feed, site: liver, lesion: neoplastic nodule, dosed 104 weeks, study length 104 weeks): 41100 mg/kg/day (inactive)
TD50 (rat, strain Charles River CD (Sprague-Dawley), females, in feed, site: mammary gland, lesion: several types, types named in the paper, dosed 78 weeks, study length 78 weeks): 68.9 mg/kg/day
carcinogen call (rat, strain Charles River CD (Sprague-Dawley), males, in feed, site: any site (literature study), lesion: one or several types, types not named, dosed 104 weeks, study length 104 weeks): negative (inactive)
carcinogen call (rat, strain Charles River CD (Sprague-Dawley), males, in feed, site: liver, lesion: hepatocellular carcinoma, dosed 104 weeks, study length 104 weeks): negative (inactive)
TD50 (rat, strain Charles River CD (Sprague-Dawley), males, in feed, site: liver, lesion: hepatocellular tumor, dosed 78 weeks, study length 78 weeks): 366 mg/kg/day
TD50 (rat, strain Charles River CD (Sprague-Dawley), males, in feed, site: liver, lesion: neoplastic nodule, dosed 104 weeks, study length 104 weeks): 678 mg/kg/day (inactive)
carcinogen call (rat, strain Fischer 344, females, in feed, site: any site (literature study), lesion: several types, types named in the paper, dosed 107 weeks, study length 107 weeks): negative (inactive)
TD50 (rat, strain Fischer 344, females, in feed, site: liver, lesion: hepatocellular adenoma + hepatocellular carcinoma + neoplastic nodule, dosed 107 weeks, study length 107 weeks): 1430 mg/kg/day
carcinogen call (rat, strain Fischer 344, males, in feed, site: any site (literature study), lesion: several types, types named in the paper, dosed 107 weeks, study length 107 weeks): negative (inactive)

C[C@H]1CCCCN1N=O
TD50 (rat, strain Sprague-Dawley, both sexes, in drinking water, site: any site (literature study), lesion: malignant tumor, dosed 104 weeks, study length 104 weeks): 13.2 mg/kg/day
TD50 (rat, strain Sprague-Dawley, both sexes, in drinking water, site: liver, lesion: liver-cell carcinoma, dosed 104 weeks, study length 104 weeks): 61.2 mg/kg/day
TD50 (rat, strain Sprague-Dawley, both sexes, in drinking water, site: liver, lesion: several types, types named in the paper, dosed 104 weeks, study length 104 weeks): 49.4 mg/kg/day
TD50 (rat, strain Sprague-Dawley, both sexes, in drinking water, site: several sites, sites named in the paper, lesion: ependymoblastoma, dosed 104 weeks, study length 104 weeks): 34.5 mg/kg/day

CCCNC(=O)NS(=O)(=O)c1ccc(Cl)cc1
carcinogen call (mouse, strain B6C3F1, females, in feed, site: any site (literature study), lesion: several types, types named in the paper, dosed 104 weeks, study length 104 weeks): negative (inactive)
TD50 (mouse, strain B6C3F1, females, in feed, site: lung, lesion: alveolar/bronchiolar adenoma + alveolar/bronchiolar carcinoma, dosed 104 weeks, study length 104 weeks): 1440 mg/kg/day
carcinogen call (mouse, strain B6C3F1, males, in feed, site: any site (literature study), lesion: several types, types named in the paper, dosed 104 weeks, study length 104 weeks): negative (inactive)
carcinogen call (rat, strain Fischer 344, females, in feed, site: any site (literature study), lesion: several types, types named in the paper, dosed 104 weeks, study length 104 weeks): negative (inactive)
carcinogen call (rat, strain Fischer 344, males, in feed, site: any site (literature study), lesion: several types, types named in the paper, dosed 103 weeks, study length 103 weeks): negative (inactive)

CCCCCC(/C=C/C=C\CCCCCCCC(=O)OC)OO (stereo unspecified)
carcinogen call (rat, strain Wistar, males, by gavage, site: gastrointestinal tract, lesion: several types, types named in the paper, dosed 30 weeks, study length 87 weeks): negative (inactive)
carcinogen call (rat, strain Wistar, males, by gavage, site: liver, lesion: one or several types, types not named, dosed 30 weeks, study length 87 weeks): negative (inactive)
